Experimental data taken from US11155523B2, “Biphenyl compound as CCR2/CCR5 receptor antagonist” (Medshine Discovery Inc., priority 2016, dated 2021).

Legend:
[1] = Comparative pharmacokinetics study in cynomolgus monkeys; type: in vivo; conditions: cynomolgus monkey
Source text: Experimental Example 3: Comparative Pharmacokinetics Study in Cynomolgus Monkeys
Male cynomolgus monkeys were used as the test animals in this study. The drug concentrations in plasma of the cynomolgus monkeys by intravenous or oral administration of test compound WX047 and reference compound at different time points were quantitatively determined by LC/MS/MS, which were used to evaluate the pharmacokinetic profile of the two test drugs in cynomolgus monkeys.
A clear solution of the test compound was injected into cynomolgus monkeys via t the cephalic or saphenous vein (overnight fasting, 2.5-7 kg), and the test compound was intragastrically administered to the cynomolgus monkeys (overnight fasting, 7-10 weeks old). Approximately 400 μL of blood was collected from the peripheral vein of the animals 0.0833, 0.25, 0.5, 1, 2, 4, 6, 8, 12 and 24 hours after administration, and transferred into an commercial centrifuge tube containing EDTA-K2*2H2O anticoagulation. The plasma was collected by centrifugation at 3000 g for 10 minutes at 4° C. The plasma concentration was determined by LC-MS/MS. The pharmacokinetic parameters were calculated by the non-compartment model linear logarithmic trapezoidal method using WinNonlin™ Version 6.3 (Pharsight, Mountain View, Calif.) pharmacokinetic software.

CYP1A2 = target: T1, CYP1A2 (Homo sapiens, UniProt P05177); assay: Inhibition of human liver microsomal CYP1A2 (phenacetin probe); type: in vitro ADME; conditions: human liver microsomes
T1 construct: from tissue; host or cells: human liver microsomes
T1 sequence (P05177 1-516): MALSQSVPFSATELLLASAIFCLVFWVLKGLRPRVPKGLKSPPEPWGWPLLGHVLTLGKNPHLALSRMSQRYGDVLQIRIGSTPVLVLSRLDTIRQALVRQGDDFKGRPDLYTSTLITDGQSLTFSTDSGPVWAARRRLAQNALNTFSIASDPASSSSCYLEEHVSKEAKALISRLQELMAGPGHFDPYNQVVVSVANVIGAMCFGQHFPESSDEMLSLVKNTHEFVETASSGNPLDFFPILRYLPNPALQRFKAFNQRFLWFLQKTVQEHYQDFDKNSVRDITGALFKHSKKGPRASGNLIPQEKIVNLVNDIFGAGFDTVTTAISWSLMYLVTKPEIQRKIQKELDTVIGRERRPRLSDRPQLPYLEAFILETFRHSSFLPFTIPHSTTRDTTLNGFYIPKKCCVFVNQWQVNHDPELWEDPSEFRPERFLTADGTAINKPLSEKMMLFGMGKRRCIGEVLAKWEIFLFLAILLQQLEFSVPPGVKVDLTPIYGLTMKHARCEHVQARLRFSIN
Protocol: (§1) Experimental Example 4 Inhibition Effect on the Activity of Human Liver Microsomal Cytochrome P450 Isoezymes (CYP1A2, CYP2C9, CYP2C19, CYP2D6 and CYP3A4)
(§2) A total of 5 specific probe substrates for CYP's five isozymes, Phenacetin (CYP1A2), Diclofenac (CYP2C9), […] (S)-Mephenytoin, CYP2C19), Dextromethorphan (CYP2D6) and Midazolam (CYP3A4) were incubated with human liver microsomes and test compounds, respectively, and reduced nicotinamide adenine dinucleotide phosphate (NADPH) was added to initiate the reaction. After the reaction, the sample was processed and liquid chromatography tandem mass spectrometry (LC-MS/MS) was used to quantitatively detect the […] metabolites produced by the specific substrate, Acetaminophen and 4′-hydroxydiclofenac, 4′-hydroxymephenytoin, Dextrorphan and 1′-hydroxymidazolam, in order to calculate the corresponding half maximal inhibitory concentration (IC50).

CYP3A4 = target: T2, CYP3A4 (Homo sapiens, UniProt P08684); assay: Inhibition of human liver microsomal CYP3A4 (midazolam probe); type: in vitro ADME; conditions: human liver microsomes, probe midazolam
T2 construct: from tissue; host or cells: human liver microsomes
T2 sequence (P08684 whole entry): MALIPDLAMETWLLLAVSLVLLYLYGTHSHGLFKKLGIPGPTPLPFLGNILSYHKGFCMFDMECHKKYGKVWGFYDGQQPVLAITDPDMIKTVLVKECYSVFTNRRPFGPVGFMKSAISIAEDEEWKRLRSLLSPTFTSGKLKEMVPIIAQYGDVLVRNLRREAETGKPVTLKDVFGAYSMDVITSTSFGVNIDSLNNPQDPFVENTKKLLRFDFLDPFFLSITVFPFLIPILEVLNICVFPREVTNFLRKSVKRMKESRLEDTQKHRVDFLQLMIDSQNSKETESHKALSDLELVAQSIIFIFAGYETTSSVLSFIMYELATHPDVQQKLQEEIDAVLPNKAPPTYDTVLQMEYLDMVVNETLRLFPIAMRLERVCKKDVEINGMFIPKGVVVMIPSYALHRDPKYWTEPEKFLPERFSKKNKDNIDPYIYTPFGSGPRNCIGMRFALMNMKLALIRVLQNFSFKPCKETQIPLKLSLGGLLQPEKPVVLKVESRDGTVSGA
Protocol: as §1, §2

[2] = tested on: human liver microsomal cytochrome P450 isoenzymes; assay: Inhibition of human liver microsomal cytochrome P450 isoenzymes, overall conclusion; type: in vitro ADME; conditions: human liver microsomes
Protocol: as §1, §2

[3] = male, plasma, intravenous injection 1 mg/kg

Area Under a Curve (0-inf) ([1]; intravenous injection 1 mg/kg): 3.149 µM·h
Area Under a Curve (0-inf/0-last) ([1]; oral 3 mg/kg): 3.678 µM·h
Peak time ([1]; oral 3 mg/kg): 2.0 h
Oral plasma system exposure (AUC0-inf) as multiple of the reference compound ([1]; oral, relative to Cenicriviroc): 10.8 times
Bioavailability as multiple of the reference compound ([1]; relative to Cenicriviroc): 7.6 times
clearance [1, 3]: 9.11 mL/min/kg
half-life [1, 3]: 1.66 h
bioavailability ([1]; male, plasma, oral 3 mg/kg vs intravenous 1 mg/kg): 38.9%
IC50 (CYP1A2): > 50 µM
IC50 (CYP3A4): > 50 µM
Risk of inhibiting isoenzymes of human liver microsomal cytochrome P450 (conclusion in words) [2]: no risk on inhibiting five isoenzymes
Structure (SMILES): CCCCOCCOc1ccc(-c2ccc(OCC)c(/C=C/C(=O)Nc3ccc([S@+]([O-])Cc4c(C)ncn4CC)cc3)c2)cc1 [WX047]
